From ChEMBL document CHEMBL3046147, “Synthesis and Herbicidal Activity of 1-Arylalkyl-3-pyrrolin-2-one Derivatives” (J Pestic Sci, 2000)
The source made the active and inactive calls.

What was measured:
Echinochloa oryzicola [1] = experiment: Herbicidal activity against Echinochloa oryzicola under greenhouse condition assessed as growth inhibition at 125 g /ha measured after 20 days; assay type: functional, organism-based
Echinochloa oryzicola [2] = experiment: Herbicidal activity against Echinochloa oryzicola under greenhouse condition assessed as growth inhibition at 250 g /ha measured after 13 days; assay type: functional, organism-based
Echinochloa oryzicola [3] = experiment: Herbicidal activity against Echinochloa oryzicola under greenhouse condition assessed as growth inhibition at 125 g /ha measured after 42 days; assay type: functional, organism-based
Echinochloa oryzicola [4] = experiment: Pre-emergence herbicide activity against Echinochloa oryzicola under greenhouse condition measured after 14 to 20 days; assay type: functional
Echinochloa oryzicola [5] = experiment: Herbicide activity against Echinochloa oryzicola under greenhouse condition compound treated at 2 leaf-stage measured after 14 to 20 days; assay type: functional
Oryza sativa = experiment: Phytotoxicity against two-leaf stage Oryza sativa cv. Nihonbare (rice) planted 3 cm depth measured after […]; assay type: organism-based; details: in vivo
Echinochloa oryzicola [6] = experiment: Herbicidal activity against Echinochloa oryzicola grown in water-drained pot under greenhouse condition assessed as growth inhibition at 125 g /ha measured after 20 days; assay type: functional, organism-based
Echinochloa oryzicola [7] = experiment: Herbicidal activity against Echinochloa oryzicola grown in water-drained pot under greenhouse condition assessed as growth inhibition at 500 g /ha measured after 13 days; assay type: functional, organism-based
Echinochloa oryzicola [8] = experiment: Herbicidal activity against Echinochloa oryzicola grown in water-drained pot under greenhouse condition assessed as growth inhibition at 125 g /ha measured after 6 days; assay type: functional, organism-based
Echinochloa oryzicola [9] = experiment: Herbicidal activity against Echinochloa oryzicola under greenhouse condition assessed as growth inhibition at 250 g /ha measured after 6 days; assay type: functional, organism-based
Echinochloa oryzicola [10] = experiment: Herbicidal activity against Echinochloa oryzicola grown in water-drained pot under greenhouse condition assessed as growth inhibition at 125 g /ha measured after 27 days; assay type: functional, organism-based
Elatine triandra [11] = experiment: Herbicidal activity against Elatine triandra at 250 g /ha treated at 1 to 2-pairs of leaf stage measured after 26 days by outdoor concrete pot test; assay type: functional, organism-based
Echinochloa oryzicola [12] = experiment: Herbicidal activity against Echinochloa oryzicola under greenhouse condition assessed as growth inhibition at 250 g /ha measured after 33 days; assay type: functional, organism-based
Rotala indica = experiment: Herbicidal activity against Rotala indica at 250 g /ha treated at 1 to 2-pairs of leaf stage measured after 26 days by outdoor concrete pot test; assay type: functional, organism-based
[13] = tested on: Schoenoplectiella juncoides; experiment: Herbicidal activity against Schoenoplectiella juncoides at 250 g /ha treated at 1.5 to 2.1-leaf stage measured after 26 days by outdoor concrete pot test; assay type: functional, organism-based
Pontederia vaginalis = experiment: Herbicidal activity against Monochoria vaginalis at 1000 g /ha treated at 1.5 to 2-leaf stage measured after 26 days by outdoor concrete pot test; assay type: functional, organism-based
Echinochloa oryzicola [14] = experiment: Herbicidal activity against Echinochloa oryzicola under greenhouse condition assessed as growth inhibition at 125 g /ha measured after 27 days; assay type: functional, organism-based
Lindernia procumbens = experiment: Herbicidal activity against Lindernia procumbens at 500 g /ha treated at 1 to 2-pairs of leaf stage measured after 26 days by outdoor concrete pot test; assay type: functional, organism-based
Echinochloa oryzicola [15] = experiment: Herbicidal activity against Echinochloa oryzicola grown in water-drained pot under greenhouse condition assessed as growth inhibition at 500 g /ha measured after 27 days; assay type: functional, organism-based
Echinochloa oryzicola [16] = experiment: Herbicidal activity against Echinochloa oryzicola under greenhouse condition assessed as growth inhibition at 500 g /ha measured after 13 days; assay type: functional, organism-based
Elatine triandra [17] = experiment: Herbicidal activity against Elatine triandra at 1000 g /ha treated at 1 to 2-pairs of leaf stage measured after 26 days by outdoor concrete pot test; assay type: functional, organism-based
Elatine triandra [18] = experiment: Herbicidal activity against Elatine triandra at 500 g /ha treated at 1 to 2-pairs of leaf stage measured after 26 days by outdoor concrete pot test; assay type: functional, organism-based
[19] = tested on: Schoenoplectiella juncoides; experiment: Herbicidal activity against Schoenoplectiella juncoides at 500 g /ha treated at 1.5 to 2.1-leaf stage measured after 26 days by outdoor concrete pot test; assay type: functional, organism-based
Echinochloa oryzicola [20] = experiment: Herbicidal activity against Echinochloa oryzicola grown in water-drained pot under greenhouse condition assessed as growth inhibition at 500 g /ha measured after 42 days; assay type: functional, organism-based

CC1=C(c2ccccc2)C(=O)N(C(C)(C)c2nc3ccccc3s2)C1
10 g/acre: MTD (Oryza sativa)
0.313 g/acre: MED (Echinochloa oryzicola [4])
1.25 g/acre: MED (Echinochloa oryzicola [5])
inactive: growth inhibition (GI) (Echinochloa oryzicola [6]) | growth inhibition (GI) (Echinochloa oryzicola [10]) | growth inhibition (GI) (Echinochloa oryzicola [12]) | growth inhibition (GI) [13] | growth inhibition (GI) [19] | growth inhibition (GI) (Echinochloa oryzicola [20])
active: growth inhibition (GI) (Echinochloa oryzicola [1]) | growth inhibition (GI) (Echinochloa oryzicola [2]) | growth inhibition (GI) (Echinochloa oryzicola [3]) | growth inhibition (GI) (Echinochloa oryzicola [7]) | growth inhibition (GI) (Echinochloa oryzicola [8]) | growth inhibition (GI) (Echinochloa oryzicola [9]) | growth inhibition (GI) (Elatine triandra [11]) | growth inhibition (GI) (Rotala indica) | growth inhibition (GI) (Pontederia vaginalis) | growth inhibition (GI) (Echinochloa oryzicola [14]) | growth inhibition (GI) (Lindernia procumbens) | growth inhibition (GI) (Echinochloa oryzicola [15]) | growth inhibition (GI) (Echinochloa oryzicola [16]) | growth inhibition (GI) (Elatine triandra [17]) | growth inhibition (GI) (Elatine triandra [18])
